This passage reports Potency and ED100 results from ChEMBL document CHEMBL1121373, “Synthesis and antifertility activity of 3,9-dihydroxy-5,6,6a alpha,6b beta,11,12,12a beta,12b alpha-octahydrodibenzo[a,g]biphenylene, a structural relative of diethylstilbestrol” (1980).

Experiment [1] deals with Estrogen receptor (Rattus norvegicus) (UniProt P06211+Q62986). As to the kind of experiment: Estrogenic activity in uterotrophic assay in rats on oral administration relative to diethylstilbestrol. The class given is functional, organism-based.
The species entered for the next experiment is Rattus norvegicus. The experiment in a line: Effective dose for antifertility activity in rats. It counts as functional.

In experiment [1], `Oc1ccc2c(c1)CCC1C2C2CCc3cc(O)ccc3C12` (configuration not stated) returned a Potency of 16%. The ED100 in the experiment listed under Rattus norvegicus was determined as 100 µg/day/kg.
